Measured values as given in ChEMBL document CHEMBL3108774, “Azaindoles: noncovalent DprE1 inhibitors from scaffold morphing efforts, kill Mycobacterium tuberculosis and are efficacious in vivo” (J Med Chem, 2013).
Converted amounts (≈) assume the structure as drawn.

Tests used:
[1] = test system: Mycobacterium tuberculosis; test: Antimicrobial activity against Mycobacterium tuberculosis H37Rv ATCC 27294 assessed as growth inhibition after 5 days by microdilution method; format: functional; conditions: H37Rv ATCC 27294, 120 h
[2] = Inhibition of Mycobacterium smegmatis thioredoxin 6xHis-tagged decaprenylphosphoryl-beta-D-ribose2'-epimerase1 overexpressed in Escherichia coli rossetta cells using farnesyl-phosphoryl-beta-D-ribofuranose as substrate; set-up: species or system Mycolicibacterium smegmatis
[3] = target: Cytochrome P450 2D6 (Homo sapiens, UniProt P10635); test: Inhibition of human CYP2D6; format: ADME
Sequence of Cytochrome P450 2D6 (P10635 whole entry): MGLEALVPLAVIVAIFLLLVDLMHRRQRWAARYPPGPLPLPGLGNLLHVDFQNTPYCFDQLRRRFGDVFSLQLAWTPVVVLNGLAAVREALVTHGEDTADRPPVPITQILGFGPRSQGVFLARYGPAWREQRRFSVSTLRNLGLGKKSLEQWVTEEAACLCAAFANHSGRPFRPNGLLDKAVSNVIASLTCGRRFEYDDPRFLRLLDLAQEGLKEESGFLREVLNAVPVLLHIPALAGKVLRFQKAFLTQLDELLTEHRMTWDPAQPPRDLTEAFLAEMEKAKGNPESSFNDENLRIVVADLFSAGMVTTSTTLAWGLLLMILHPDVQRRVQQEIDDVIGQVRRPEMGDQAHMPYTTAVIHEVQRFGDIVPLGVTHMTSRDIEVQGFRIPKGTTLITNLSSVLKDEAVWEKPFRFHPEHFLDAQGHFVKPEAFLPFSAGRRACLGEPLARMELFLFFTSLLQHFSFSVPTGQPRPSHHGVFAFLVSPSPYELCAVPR

[4] = target: Cytochrome P450 3A4 (Homo sapiens, UniProt P08684); test: Inhibition of human CYP3A4; format: ADME
Sequence of Cytochrome P450 3A4 (P08684 whole entry): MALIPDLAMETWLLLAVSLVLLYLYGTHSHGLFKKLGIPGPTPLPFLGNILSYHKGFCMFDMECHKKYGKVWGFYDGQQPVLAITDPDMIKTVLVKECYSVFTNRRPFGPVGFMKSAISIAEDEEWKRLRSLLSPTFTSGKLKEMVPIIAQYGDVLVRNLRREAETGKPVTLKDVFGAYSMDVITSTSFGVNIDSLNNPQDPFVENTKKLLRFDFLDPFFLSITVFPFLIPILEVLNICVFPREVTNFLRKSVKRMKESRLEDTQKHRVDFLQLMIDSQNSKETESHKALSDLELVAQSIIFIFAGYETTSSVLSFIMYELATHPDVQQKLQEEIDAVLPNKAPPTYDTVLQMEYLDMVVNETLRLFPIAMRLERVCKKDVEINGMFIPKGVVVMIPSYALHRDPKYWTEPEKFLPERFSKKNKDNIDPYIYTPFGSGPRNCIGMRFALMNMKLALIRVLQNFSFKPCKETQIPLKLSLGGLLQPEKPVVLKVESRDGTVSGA

[5] = target: Cytochrome P450 2C9 (Homo sapiens, UniProt P11712); test: Inhibition of human CYP2C9; format: ADME
Sequence of Cytochrome P450 2C9 (P11712 whole entry): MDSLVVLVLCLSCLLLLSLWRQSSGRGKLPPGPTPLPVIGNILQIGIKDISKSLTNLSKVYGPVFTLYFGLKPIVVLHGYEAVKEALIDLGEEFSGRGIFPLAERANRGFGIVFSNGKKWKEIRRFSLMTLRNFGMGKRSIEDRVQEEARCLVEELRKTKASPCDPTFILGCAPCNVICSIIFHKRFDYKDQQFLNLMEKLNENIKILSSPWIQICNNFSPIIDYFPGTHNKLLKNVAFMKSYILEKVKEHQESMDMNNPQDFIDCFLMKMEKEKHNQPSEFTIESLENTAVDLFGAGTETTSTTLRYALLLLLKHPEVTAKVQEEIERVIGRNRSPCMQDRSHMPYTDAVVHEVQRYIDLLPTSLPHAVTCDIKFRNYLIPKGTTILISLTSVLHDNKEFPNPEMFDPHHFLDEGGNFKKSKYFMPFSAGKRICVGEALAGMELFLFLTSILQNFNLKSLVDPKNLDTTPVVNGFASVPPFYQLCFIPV

[6] = target: Voltage-gated inwardly rectifying potassium channel KCNH2 (Homo sapiens, UniProt Q12809); test: Inhibition of human ERG
Sequence of Voltage-gated inwardly rectifying potassium channel KCNH2 (Q12809 whole entry): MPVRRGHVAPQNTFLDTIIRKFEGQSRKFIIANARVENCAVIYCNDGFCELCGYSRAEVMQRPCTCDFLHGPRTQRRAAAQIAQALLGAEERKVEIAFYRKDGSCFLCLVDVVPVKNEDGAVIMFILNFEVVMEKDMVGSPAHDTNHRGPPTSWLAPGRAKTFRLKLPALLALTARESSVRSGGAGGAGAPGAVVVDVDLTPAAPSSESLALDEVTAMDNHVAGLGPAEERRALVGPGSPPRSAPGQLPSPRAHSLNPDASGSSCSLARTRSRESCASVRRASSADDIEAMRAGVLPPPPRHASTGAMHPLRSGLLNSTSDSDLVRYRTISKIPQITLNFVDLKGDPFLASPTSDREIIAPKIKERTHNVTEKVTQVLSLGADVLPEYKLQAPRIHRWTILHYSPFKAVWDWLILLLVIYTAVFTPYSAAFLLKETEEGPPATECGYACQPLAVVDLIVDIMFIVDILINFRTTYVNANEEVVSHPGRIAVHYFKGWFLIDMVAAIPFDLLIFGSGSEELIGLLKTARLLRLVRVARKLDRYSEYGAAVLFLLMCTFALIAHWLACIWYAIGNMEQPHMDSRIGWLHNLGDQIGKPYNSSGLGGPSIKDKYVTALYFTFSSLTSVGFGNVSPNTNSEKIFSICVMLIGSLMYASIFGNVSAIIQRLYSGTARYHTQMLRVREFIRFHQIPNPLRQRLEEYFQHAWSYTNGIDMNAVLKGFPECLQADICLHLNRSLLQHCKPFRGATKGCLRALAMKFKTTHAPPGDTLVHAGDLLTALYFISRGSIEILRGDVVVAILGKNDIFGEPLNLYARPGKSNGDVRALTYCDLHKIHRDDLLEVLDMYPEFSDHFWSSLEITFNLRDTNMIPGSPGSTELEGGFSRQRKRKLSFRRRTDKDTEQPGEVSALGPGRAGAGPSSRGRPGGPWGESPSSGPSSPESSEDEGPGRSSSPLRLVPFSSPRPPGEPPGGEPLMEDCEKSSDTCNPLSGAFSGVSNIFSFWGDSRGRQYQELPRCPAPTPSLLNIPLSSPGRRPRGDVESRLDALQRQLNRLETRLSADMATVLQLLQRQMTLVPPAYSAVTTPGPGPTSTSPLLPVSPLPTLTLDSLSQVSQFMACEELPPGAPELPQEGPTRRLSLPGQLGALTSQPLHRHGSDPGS

[7] = target: T1, Cytochrome P450 1A2 (Homo sapiens, UniProt P05177); test: Inhibition of human CYP1A2; format: ADME
T1 sequence (P05177 whole entry): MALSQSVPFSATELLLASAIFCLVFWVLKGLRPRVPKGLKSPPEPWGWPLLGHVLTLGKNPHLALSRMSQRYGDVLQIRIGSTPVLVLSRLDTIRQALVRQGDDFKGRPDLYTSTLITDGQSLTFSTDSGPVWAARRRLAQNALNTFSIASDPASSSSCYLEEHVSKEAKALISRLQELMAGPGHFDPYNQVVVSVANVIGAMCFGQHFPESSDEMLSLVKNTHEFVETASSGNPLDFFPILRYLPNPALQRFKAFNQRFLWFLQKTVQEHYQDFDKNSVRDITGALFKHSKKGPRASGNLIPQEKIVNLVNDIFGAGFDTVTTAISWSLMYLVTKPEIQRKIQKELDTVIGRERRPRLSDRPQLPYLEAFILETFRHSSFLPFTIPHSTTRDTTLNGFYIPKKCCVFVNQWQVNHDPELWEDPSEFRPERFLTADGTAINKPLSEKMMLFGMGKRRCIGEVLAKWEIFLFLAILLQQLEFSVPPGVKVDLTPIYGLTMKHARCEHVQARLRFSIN

[8] = target: Cytochrome P450 2C19 (Homo sapiens, UniProt P33261); test: Inhibition of human CYP2C19; format: ADME
Sequence of Cytochrome P450 2C19 (P33261 whole entry): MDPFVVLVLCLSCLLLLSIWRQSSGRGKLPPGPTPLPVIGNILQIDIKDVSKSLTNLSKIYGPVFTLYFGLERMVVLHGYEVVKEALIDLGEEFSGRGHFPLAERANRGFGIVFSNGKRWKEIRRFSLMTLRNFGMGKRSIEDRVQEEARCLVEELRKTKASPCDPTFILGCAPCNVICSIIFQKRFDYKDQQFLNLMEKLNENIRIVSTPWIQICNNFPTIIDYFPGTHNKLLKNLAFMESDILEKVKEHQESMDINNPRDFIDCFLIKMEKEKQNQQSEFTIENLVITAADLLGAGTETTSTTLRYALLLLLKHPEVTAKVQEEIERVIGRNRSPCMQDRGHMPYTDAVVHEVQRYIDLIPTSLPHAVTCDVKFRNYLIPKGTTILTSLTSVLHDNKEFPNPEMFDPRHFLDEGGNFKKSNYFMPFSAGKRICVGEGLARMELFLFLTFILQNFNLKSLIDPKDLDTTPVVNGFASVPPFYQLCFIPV

[9] = AUC in BALB/C mouse infected with Mycobacterium tuberculosis H37Rv ATCC 27294 at 50 to 200 mg/kg, po qd administered for 24 days by LC-MS/MS analysis; format: ADME, organism-based; set-up: dose 50-200 mg/kg, route oral; conditions: plasma
[10] = Cytotoxicity against human A549 cells assessed as cell viability after 72 hrs by resazurin staining-based fluorimetric analysis; conditions: read-out: MIC
[11] = Inhibition of Mycobacterium smegmatis thioredoxin 6xHis-tagged decaprenylphosphoryl-beta-D-ribose2'-epimerase1 C394G mutant overexpressed in Escherichia coli rossetta cells using farnesyl-phosphoryl-beta-D-ribofuranose as substrate; set-up: species or system Mycolicibacterium smegmatis
[12] = test system: Mycobacterium tuberculosis; test: Bactericidal activity against Mycobacterium tuberculosis H37Rv ATCC 27294 after 5 days by microdilution method; format: functional; conditions: H37Rv ATCC 27294, 120 h
[13] = Inhibition of Mycobacterium smegmatis thioredoxin 6xHis-tagged decaprenylphosphoryl-beta-D-ribose2'-epimerase1 Y321H mutant overexpressed in Escherichia coli rossetta cells using farnesyl-phosphoryl-beta-D-ribofuranose as substrate; set-up: species or system Mycolicibacterium smegmatis
[14] = test system: Mycobacterium tuberculosis; test: Bactericidal activity against hypoxia induced nonreplicating persistent Mycobacterium tuberculosis H37Rv after 7 days; format: functional; conditions: 168 h
[15] = test system: Mycobacterium tuberculosis; test: Bactericidal activity against Mycobacterium tuberculosis H37Rv ATCC 27294 infected in human THP1 cells assessed as reduction in CFU at 1 to 4 times MIC at day 10 by time-kill method; format: functional, THP-1
[16] = Kinetic solubility of the compound in phosphate buffer at pH 7.4 after 24 hrs by LC-MS analysis; format: physicochemical; conditions: read-out: Kinetic_solubility
[17] = test system: Mycobacterium tuberculosis; test: Antimicrobial activity against Mycobacterium tuberculosis H37Rv ATCC 27294 infected in BALB/C mouse chronic infection model assessed as reduced bacterial burden in lungs at 30 to 100 mg/kg, po administered on day 28 measured after 4 weeks; format: functional, Lung; conditions: dose mg/kg 30-100
[18] = test system: Mus musculus; test: fT>MIC in BALB/C mouse infected with Mycobacterium tuberculosis H37Rv ATCC 27294 at 50 to 200 mg/kg, po qd after 10 to 24 hrs
[19] = test system: Mycobacterium tuberculosis; test: Antimicrobial activity against Mycobacterium tuberculosis H37Rv ATCC 27294 infected in BALB/C mouse acute infection model assessed as reduced bacterial burden in lungs at 50 to 100 mg/kg, po administered 3 days postinfection measured after 4 weeks; format: functional, Lung; conditions: dose mg/kg 50-100
[20] = test system: Mycobacterium tuberculosis; test: Bactericidal activity against Mycobacterium tuberculosis H37Rv ATCC 27294 infected in human THP1 cells assessed as reduction in CFU at 1 to 4 times MIC by time-kill method; format: functional, THP-1
[21] = test system: Mycobacterium tuberculosis; test: Antimicrobial activity against po dosed Mycobacterium tuberculosis H37Rv ATCC 27294 infected BALB/C mouse chronic infection model assessed as reduced bacterial burden in lungs administered on day 28 measured after 4 weeks; format: functional, organism-based; conditions: Lung
[22] = test system: Mycobacterium tuberculosis; test: Antimicrobial activity against po dosed Mycobacterium tuberculosis H37Rv ATCC 27294 infected BALB/C mouse acute infection model assessed as reduced bacterial burden in lungs administered 3 days postinfection measured after 4 weeks; format: functional, organism-based; conditions: Lung
[23] = test system: Mycobacterium tuberculosis; test: Bactericidal activity against hypoxia induced nonreplicating persistent Mycobacterium tuberculosis H37Rv assessed as reduction in CFU at 30 times MIC; format: functional
[24] = Unbound fraction in human plasma; format: ADME, cell-free

For `Cc1cnc2c(C(=O)NCCF)cn(Cc3ncnc(N(C)C)c3C)c2c1`, the MIC [1] was 0.78 µM (≈ 0.289 µg/mL) and the IC50 [2] was 37 nM.

For `COc1ncnc(Cn2cc(C(=O)NCC3CC3)c3ncccc32)c1C`, the INH [3] was over 50 µM, the INH [4] was over 50 µM and the INH [5] was over 50 µM. It also gave an INH [6] of over 33 µM, an INH [7] of over 50 µM and an INH [8] of over 50 µM. The AUC at 576 h [9] was 200 µM·h and the MCC at 72 h [10] was over 100 µM.

`Cc1ccccc1Cn1cc(C(=O)NCC2CC2)c2ncccc21` gave an INH [6] of 28 µM and an MCC at 72 h [10] of 94 µM.

With `COc1ncnc(Cn2cc(C(=O)NC[C@H](C)F)c3ncc(C)cc32)c1C` the MIC [1] was 0.156 µM (≈ 0.0579 µg/mL) and the IC50 [2] was 14 nM.

Work on `COc1ncnc(Cn2cc(C(=O)NCCO)c3ncc(C)cc32)c1C` [TBA-7371] yielded an INH [3] of over 50 µM, an IC50 [11] of 10 nM and an INH [4] of over 50 µM. The MBC [12] was 0.78 µM (≈ 0.277 µg/mL), the MIC [1] was 1.56 µM (≈ 0.554 µg/mL) and the IC50 [2] was 10 nM. The INH [5] was over 50 µM, the IC50 [13] was over 10000 nM and the INH [6] was over 33 µM. The INH [7] was over 50 µM, the INH [8] was over 50 µM and the MBC [14] was over 100 µM. For the same compound, the MCC at 72 h [10] was over 100 µM.

With `COc1ncnc(Cn2cc(C(=O)NCCO)c3ncccc32)c1C` the MIC [1] was 14 µM (≈ 4.78 µg/mL) and the IC50 [2] was 90 nM.

`Cc1ccc(Cn2cc(C(=O)NCCF)c3ncccc32)c(C)c1` showed an MIC [1] of 1.56 µM (≈ 0.508 µg/mL) and an IC50 [2] of 10 nM.

`Cc1ccc(Cn2cc(C(=O)NCCc3ccncc3)c3ncccc32)c(C)c1` showed an MIC [1] of over 200 µM and an IC50 [2] of 5500 nM.

`COCCNC(=O)c1cn(Cc2cc(F)cnc2OC)c2cccnc12` showed an MIC [1] of 0.78 µM (≈ 0.28 µg/mL) and an IC50 [2] of 4 nM.

`CCc1nc2cc(Cl)ccn2c1C(=O)NCc1ccc(N2CCN(c3ccc(F)cc3)CC2)cc1` showed an MBC [12] of over 200 µM, an MIC [1] of 0.017 µM (≈ 0.00836 µg/mL) and an IC50 [2] of over 10000 nM. It also gave an MBC [14] of over 100 µM.

`COc1ncnc(Cn2cc(C(=O)NCCF)c3ncccc32)c1C` showed a log10cfu [15] of 4, an INH [3] of over 50 µM and an IC50 [11] of 15 nM. The INH [4] was over 50 µM, the solubility kinetic at 24 h [16] was 8 µM (≈ 2.75 µg/mL) and the log10cfu [17] was over 1.5. For the same compound, the MBC [12] was 1.56 µM (≈ 0.536 µg/mL), the MIC [1] was 1.56 µM (≈ 0.536 µg/mL) and the “%T>MIC” value [18] was 25%. For the same compound, the log10cfu [19] was over 1.5, the log10cfu [20] was 1 and the IC50 [2] was 10 nM. The INH [5] was over 50 µM, the IC50 [13] was over 10000 nM and the Activity [21] was “Dose-dependent effect”. The INH [6] was over 33 µM, the Activity [22] was “Dose-dependent effect” and the INH [7] was over 50 µM. The log10cfu [23] was 1.5, the INH [8] was over 50 µM and the fraction unbound [24] was 0.098. The MBC [14] was 50 µM (≈ 17.2 µg/mL), the AUC at 576 h [9] was 200 µM·h and the MCC at 72 h [10] was over 100 µM.

For `Cc1ccc(Cn2cc(C(=O)NCC3CC3)c3ncccc32)cc1`, the MIC [1] was 13.2 µM (≈ 4.22 µg/mL) and the IC50 [2] was 21 nM.

`Cc1cccnc1Cn1cc(C(=O)NCC2CC2)c2ncccc21` gave an MIC [1] of 27 µM (≈ 8.65 µg/mL) and an IC50 [2] of 83 nM.

For `Cc1ccc(Cn2cc(C(=O)NCC3CCC(F)(F)CC3)c3ncccc32)c(C)c1`, the MIC [1] was over 200 µM and the IC50 [2] was 7900 nM.

With `Cc1ccccc1Cn1cc(C(=O)NCCN2CCCCC2)c2ncccc21` the MIC [1] was over 200 µM and the IC50 [2] was over 10000 nM.

Compound `COc1cccc(F)c1Cn1cc(C(=O)NCC2CC2)c2ncccc21` has an MIC [1] of 1.56 µM (≈ 0.551 µg/mL) and an IC50 [2] of 6 nM.

Compound `COc1ccc(Cn2cc(C(=O)NCC3CC3)c3ncccc32)cc1` has an MIC [1] of 6.25 µM (≈ 2.1 µg/mL) and an IC50 [2] of 7 nM.

In the case of `COc1ccc(Cn2cc(C(=O)N(C)CC3CC3)c3ncccc32)cc1`, the MIC [1] is reported as over 200 µM and the IC50 [2] is reported as over 10000 nM.

`COc1ncnc(Cn2cc(C(=O)NC[C@@H](C)F)c3ncccc32)c1C` showed an MIC [1] of 0.78 µM (≈ 0.279 µg/mL).

`COc1ncnc(Cn2cc(C(=O)NCCF)c3ncc(C)cc32)c1C` gave an INH [3] of over 50 µM, an IC50 [11] of 7 nM and an INH [4] of over 50 µM. It also gave a solubility kinetic at 24 h [16] of 4 µM (≈ 1.43 µg/mL), an MBC [12] of under 0.39 µM and an MIC [1] of under 0.39 µM. For the same compound, the IC50 [2] was 3 nM, the INH [5] was over 50 µM and the IC50 [13] was over 10000 nM. The INH [6] was over 33 µM, the INH [7] was over 50 µM and the INH [8] was over 50 µM. The fraction unbound [24] was 0.05, the MBC [14] was 100 µM (≈ 35.7 µg/mL) and the MCC at 72 h [10] was over 100 µM.

`O=C(NCC1CC1)c1cn(CC2CCOCC2)c2cccnc12` showed an MIC [1] of over 100 µM and an IC50 [2] of 2500 nM.

In the case of `Cc1c(Cn2cc(C(=O)NCCF)c3ncccc32)ncnc1N(C)C`, the MIC [1] is reported as 6.25 µM (≈ 2.23 µg/mL) and the IC50 [2] is reported as 20 nM.

With `COc1ccc(Cn2cc(C(=O)NCC3CC3)c3cnccc32)cc1` the MIC [1] was over 200 µM and the IC50 [2] was 1000 nM.
